Legend:
[1] = molecular target: Recombinant SHP-1 protein (Homo sapiens, UniProt P29350); experiment: SHP-1 phosphatase activity assay (RediPlate 96 EnzChek Tyrosine Phosphatase Assay kit); type: biochemical; conditions: SC derivatives at 1 μM for 2 hr; recombinant SHP-1 25 ng; control DMSO = 100; mean±SD (N=3)
Experimental: Effects of SC Derivatives on Phosphatase Activity in Recombinant SHP-1 RediPlate 96 EnzChek Tyrosine Phosphatase Assay kit (R-22067) was used for SHP-1 activity assay (Molecular Probes). Recombinant SHP-1 protein (25 ng) was reacted with SC derivatives at 1 μM for 2 hr. Then the SHP-1 phosphatase activity assay was performed according to the user's manual and the absorbance was measured at 465 nm. The control group was DMSO, which functioned as the solvent of the SC derivatives. The values were expressed by mean±SD (N=3).

[2] = system: PLC5 cells (a hepatocellular carcinoma cell line); experiment: Cytotoxicity, MTT cell viability assay; type: cell-based; conditions: 72 h exposure
Experimental: PLC5 cells (a hepatocellular carcinoma cell line) were seeded at 5×10^3 cells per well in 96-well plates. Then, cells were exposed to SC derivatives at the indicated doses for 72 h. After that, cells were incubated with MTT (1 mg/ml) (Sigma-Aldrich, St. Louis, Mo.) for 2 h at 37° C. Cell viability was then assessed by measuring the absorbance at 570 nm using a microplate reader.

Recombinant SHP-1 protein, sequence (P29350 whole entry): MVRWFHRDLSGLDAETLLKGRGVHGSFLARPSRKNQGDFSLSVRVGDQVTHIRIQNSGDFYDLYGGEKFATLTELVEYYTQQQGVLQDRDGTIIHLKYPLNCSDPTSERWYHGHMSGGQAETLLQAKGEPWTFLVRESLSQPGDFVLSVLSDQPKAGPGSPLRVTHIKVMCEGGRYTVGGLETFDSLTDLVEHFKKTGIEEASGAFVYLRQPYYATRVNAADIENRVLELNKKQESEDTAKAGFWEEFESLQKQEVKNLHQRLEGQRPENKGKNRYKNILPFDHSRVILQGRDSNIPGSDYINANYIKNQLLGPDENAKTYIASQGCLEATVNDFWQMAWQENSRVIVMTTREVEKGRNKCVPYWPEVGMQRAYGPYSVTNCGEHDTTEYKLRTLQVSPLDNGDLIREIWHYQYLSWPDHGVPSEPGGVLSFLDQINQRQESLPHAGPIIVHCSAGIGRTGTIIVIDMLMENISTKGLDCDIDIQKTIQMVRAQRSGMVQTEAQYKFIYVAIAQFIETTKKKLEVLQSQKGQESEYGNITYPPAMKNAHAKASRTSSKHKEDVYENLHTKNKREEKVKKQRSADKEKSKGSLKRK

| Compound | SHP-1 Activity (% of control) [1] | IC50 [2] |
| --- | --- | --- |
| Cc1ccc(NC(=O)C2(C(=O)O)CC2)cc1Oc1ccc(C#N)cc1 [compound 68] | 84.36 ± 11.31 % of control | > 10000 nM |
| N#CC1=CCC(OC2=CC(NC(=O)C(=O)Nc3cccc(Oc4ccc(C#N)cc4)c3)CC=C2)C=C1 (stereo not shown) [compound 70, N^1-(3-((4-cyanocyclohexa-2,4-dien-1-yl)oxy)cyclohexa-2,4-dien-1-yl)-N^2-(3-(4-cyanophenoxy)phenyl)oxalamide] | 91.23 ± 15.95 % of control | > 10000 nM |
| CC1=CCC(NC(=O)C(=O)Nc2ccc(C)c(Oc3ccc(C#N)cc3)c2)C=C1OC1C=CC(C#N)=CC1 (stereo not shown) [compound 71, N^1-(3-((4-cyanocyclohexa-2,4-dien-1-yl)oxy)-4-methylcyclohexa-2,4-dien-1-yl)-N^2-(3-(4-cyanophenoxy)-4-methylphenyl)oxalamide] | 87.54 ± 10.21 % of control | 210 nM |
| N#Cc1ccc(Oc2ccc3cccc(NC(=O)C4(C(=O)O)CC4)c3c2)cc1 [compound 75, 1-((7-(4-cyanophenoxy)naphthalen-1-yl)carbamoyl)cyclopropane carboxylic acid] | 111.30 ± 9.50 % of control | > 10000 nM |
| O=C(Nc1ccc(Cl)c(C(F)(F)F)c1)Nc1ccc(Cl)c(C(F)(F)F)c1 [compound 78, 1,3-bis(4-chloro-3-(trifluoromethyl)phenyl)urea] | 113.65 ± 13.93 % of control | > 10000 nM |
| N#Cc1ccc(Oc2cccc(NC(=O)Nc3ccc(Cl)c(C(F)(F)F)c3)c2)cc1Cl [compound 79, 1-(4-chloro-3-(trifluoromethyl)phenyl)-3-(3-(3-chloro-4-cyanophenoxy)phenyl)urea] | 112.25 ± 0.60 % of control | 820 nM |
| N#Cc1ccc(Oc2cccc(NC(=O)Nc3ccc(Cl)c(C(F)(F)F)c3)c2)c(F)c1 [compound 80, 1-(4-chloro-3-(trifluoromethyl)phenyl)-3-(3-(4-cyano-2-fluorophenoxy)phenyl) urea] | X91.93 ± 8.09 % of control | 1670 nM |
| Cc1ccc(NC(=O)Nc2ccc(C)c(Oc3ccc(C#N)c(Br)c3)c2)cc1Oc1ccc(C#N)c(Br)c1 [compound 83, 1,3-bis(3-(3-bromo-4-cyanophenoxy)-4-methylphenyl)urea] | 110.68 ± 13.38 % of control | 250 nM |
| Cc1ccc(NC(=O)Nc2ccc(C)c(Oc3ccc(C#N)c(F)c3)c2)cc1Oc1ccc(C#N)c(F)c1 [compound 84, 1,3-bis(3-(4-cyano-3-fluorophenoxy)-4-methylphenyl)urea] | 108.62 ± 10.55 % of control | > 10000 nM |
| Cc1ccc(NC(=O)Nc2ccc(C)c(Oc3ccc(C#N)cc3F)c2)cc1Oc1ccc(C#N)cc1F [compound 85, 1,3-bis(3-(4-cyano-2-fluorophenoxy)-4-methylphenyl)urea] | 91.42 ± 10.47 % of control | > 10000 nM |
| Cc1ccc(NC(=O)Nc2ccc(Cl)c(C(F)(F)F)c2)cc1Oc1ccc(C#N)nc1 [compound 87, 1-(4-chloro-3-(trifluoromethyl)phenyl)-3-(3-((6-cyanopyridin-3-yl)oxy)-4-methylphenyl)urea] | 264.67 ± 32.11 % of control | 970 nM |
| Cc1ccc(NC(=O)Nc2ccc(Cl)c(C(F)(F)F)c2)cc1Oc1ccc(C#N)c(F)c1 [compound 88, 1-(4-chloro-3-(trifluoromethyl)phenyl)-3-(3-(4-cyano-3-fluorophenoxy)-4-methylphenyl)urea] | 100.48 ± 13.31 % of control | 1050 nM |
| Cc1ccc(NC(=O)Nc2ccc(Cl)c(C(F)(F)F)c2)cc1Oc1ccc(C#N)c(Br)c1 [compound 89, 1-(3-(3-bromo-4-cyanophenoxy)-4-methylphenyl)-3-(4-chloro-3-(trifluoromethyl)phenyl)urea] | 143.45 ± 15.17 % of control | 830 nM |
| Cc1ccc(NC(=O)Nc2ccc(C)c(Oc3ccc(/C(N)=N/O)cc3)c2)cc1Oc1ccc(/C(N)=N/O)cc1 [compound 94, (1Z,1′Z)-4,4′-(((carbonylbis(azanediyl))bis(2-methyl-5,1-phenylene))bis(oxy))bis(N′-hydroxybenzimidamide)] | 114.65 ± 13.55 % of control | > 10000 nM |
| Cc1cc(Oc2cc(NC(=O)Nc3ccc(C)c(Oc4ccc(C#N)c(C)c4)c3)ccc2C)ccc1C#N [compound 98, 1,3-bis(3-(4-cyano-3-methylphenoxy)-4-methylphenyl)urea] | 88.80 ± 14.30 % of control | 140 nM |
| Cc1cc(Oc2cc(NC(=O)Nc3ccc(C)c(Oc4ccc(C#N)nc4)c3)ccc2C)ccc1C#N [compound 102, 1-(3-(4-cyano-3-methylphenoxy)-4-methylphenyl)-3-(3-((6-cyanopyridin-3-yl)oxy)-4-methylphenyl)urea] | 140.46 ± 12.56 % of control | 160 nM |

The next lines start with results.

| SHP-1 Activity (% of control) [1] | Compound | IC50 [2] |
| --- | --- | --- |
| 84.35 ± 22.40 % of control | C#Cc1cccc(NC(=O)Nc2cccc(Oc3ccc(C#N)cc3)c2)c1 [compound 65, 1-(3-(4-cyanophenoxy)phenyl)-3-(3-ethynylphenyl)urea] | 1410 nM |
| 93.26 ± 9.30 % of control | C#Cc1cccc(NC(=O)Nc2ccc(C)c(Oc3ccc(C#N)cc3)c2)c1 [compound 66, 1-(3-(4-cyanophenoxy)-4-methylphenyl)-3-(3-ethynylphenyl)urea] | > 10000 nM |
| 94.05 ± 16.11 % of control | N#Cc1ccc(Oc2cccc(NC(=O)C3(C(=O)Nc4cccc(Oc5ccc(C#N)cc5)c4)CC3)c2)cc1 [compound 67, N, N′-bis(3-(4-cyanophenoxy)phenyl)cyclopropane-1,1-dicarboxamide] | > 10000 nM |
| 95.16 ± 6.91 % of control | N#Cc1ccc(Oc2cccc(NC(=O)C(=O)Nc3ccc(Cl)c(C(F)(F)F)c3)c2)cc1 [compound 69, N^1-(4-chloro-3-(trifluoromethyl)phenyl)-N^2-(3-(4-cyanophenoxy)phenyl) oxalamide] | > 10000 nM |
| 131.47 ± 14.99 % of control | N#Cc1ccc(Oc2ccc3cccc(NC(=O)Nc4ccc(Cl)c(C(F)(F)F)c4)c3c2)cc1 [compound 72, 1-(4-chloro-3-(trifluoromethyl)phenyl)-3-(7-(4-cyanophenoxy)naphthalen-1-yl)urea] | 2250 nM |
| 102.24 ± 17.36 % of control | N#Cc1ccc(Oc2ccc3cccc(NC(=O)Nc4cccc5ccc(Oc6ccc(C#N)cc6)cc45)c3c2)cc1 [compound 73, 1,3-bis(7-(4-cyanophenoxy)naphthalen-1-yl)urea] | > 10000 nM |
| 92.68 ± 5.66 % of control | Cc1ccc(NC(=O)Nc2ccc(C)c(Oc3ccc(C#N)c(Cl)c3)c2)cc1Oc1ccc(C#N)c(Cl)c1 [compound 82, 1,3-bis(3-(3-chloro-4-cyanophenoxy)-4-methylphenyl)urea] | 4140 nM |
| 81.06 ± 7.61 % of control | Cc1ccc(NC(=O)Nc2ccc(C)c(Oc3ccc(C#N)nc3)c2)cc1Oc1ccc(C#N)nc1 [compound 86, 1,3-bis(3-((6-cyanopyridin-3-yl)oxy)-4-methylphenyl)urea] | > 10000 nM |
| 95.78 ± 10.66 % of control | Cc1cc(Oc2ccc(C#N)cc2)ccc1NC(=O)Nc1ccc(Oc2ccc(C#N)cc2)cc1C [compound 90, 1,3-bis(4-(4-cyanophenoxy)-2-methylphenyl)urea] | > 10000 nM |
| 99.99 ± 4.52 % of control | N#Cc1ccc(Oc2ccc(Cl)c(NC(=O)Nc3cc(Oc4ccc(C#N)cc4)ccc3Cl)c2)cc1 [compound 91, 1,3-bis(2-chloro-5-(4-cyanophenoxy)phenyl)urea] | > 10000 nM |
| 252.27 ± 10.78 % of control | N#Cc1ccc(Oc2cc(NC(=O)Nc3ccc(Cl)c(Oc4ccc(C#N)cc4)c3)ccc2Cl)cc1 [compound 92, 1,3-bis(4-chloro-3-(4-cyanophenoxy)phenyl)urea] | > 10000 nM |
| 94.07 ± 0.82 % of control | Cc1ccc(Oc2ccc(C#N)cc2)cc1NC(=O)Nc1cc(Oc2ccc(C#N)cc2)ccc1C [compound 93, 1,3-bis(5-(4-cyanophenoxy)-2-methylphenyl)urea] | > 10000 nM |
| 194.52 ± 17.89 % of control | N#Cc1ccc(Oc2ccc(NC(=O)Nc3ccc(Cl)c(C(F)(F)F)c3)c(F)c2)cc1 [compound 96, 1-(4-chloro-3-(trifluoromethyl)phenyl)-3-(4-(4-cyanophenoxy)-2-fluorophenyl)urea] | 410 nM |
| 127.01 ± 9.02 % of control | N#Cc1ccc(Oc2ccc(F)c(NC(=O)Nc3cc(Oc4ccc(C#N)cc4)ccc3F)c2)cc1 [compound 97, 1,3-bis(5-(4-cyanophenoxy)-2-fluorophenyl)urea] | > 10000 nM |
| 99.86 ± 3.65 % of control | Cc1ccc(NC(=O)Nc2ccc(C)c(Oc3ccc(C#N)nc3)c2)cc1Oc1ccc(C#N)cc1 [compound 99, 1-(3-(4-cyanophenoxy)-4-methylphenyl)-3-(3-((6-cyanopyridin-3-yl)oxy)-4-methylphenyl)urea] | 180 nM |
| 94.38 ± 11.11 % of control | Cc1ccc(NC(=O)Nc2ccc(C)c(Oc3ccc(C#N)c(Cl)c3)c2)cc1Oc1ccc(C#N)cc1 [compound 100, 1-(3-(3-chloro-4-cyanophenoxy)-4-methylphenyl)-3-(3-(4-cyanophenoxy)-4-methylphenyl)urea] | 110 nM |

Source: US10745346B2, “Agonists of protein tyrosine phosphatase SHP-1” (priority 2015, dated 2020)
